Measurements as given in ChEMBL document CHEMBL3046358, “Multiple Pro-197 substitutions in the acetolactate synthase of rigid ryegrass (Lolium rigidum) and their impact on chlorsulfuron activity and plant growth” (Crop Prot, 2012).

Assays:
Format in all cases: functional
Lolium rigidum [1] = experiment: Herbicidal activity against Lolium rigidum accession A05 assessed as fresh weight reduction applied at 1 times pre-emergence recommended rate relative to untreated control; set-up: scale not given: the % may be the effect or the level left
Lolium rigidum [2] = experiment: Herbicidal activity against Lolium rigidum accession A13 assessed as emergence rate applied at 1 times pre-emergence recommended rate relative to untreated control
Lolium rigidum [3] = experiment: Herbicidal activity against Lolium rigidum accession A08 assessed as fresh weight reduction applied at 1 times pre-emergence recommended rate relative to untreated control; set-up: scale not given: the % may be the effect or the level left
Lolium rigidum [4] = experiment: Herbicidal activity against Lolium rigidum accession A14 assessed as emergence rate applied at 1 times pre-emergence recommended rate relative to untreated control
Lolium rigidum [5] = experiment: Herbicidal activity against Lolium rigidum accession A15 assessed as emergence rate applied at 1 times pre-emergence recommended rate relative to untreated control
Lolium rigidum [6] = experiment: Herbicidal activity against Lolium rigidum accession A03 assessed as fresh weight reduction applied at 1 times pre-emergence recommended rate relative to untreated control; set-up: scale not given: the % may be the effect or the level left
Lolium rigidum [7] = experiment: Herbicidal activity against Lolium rigidum accession A09 assessed as emergence rate applied at 1 times pre-emergence recommended rate relative to untreated control
Lolium rigidum [8] = experiment: Herbicidal activity against Lolium rigidum accession A07 assessed as emergence rate applied at 1 times pre-emergence recommended rate relative to untreated control
Lolium rigidum [9] = experiment: Herbicidal activity against Lolium rigidum accession A06 assessed as emergence rate applied at 1 times pre-emergence recommended rate relative to untreated control
Lolium rigidum [10] = experiment: Herbicidal activity against Lolium rigidum accession A05 assessed as emergence rate applied at 1 times pre-emergence recommended rate relative to untreated control
Lolium rigidum [11] = experiment: Herbicidal activity against Lolium rigidum accession A12 assessed as emergence rate applied at 1 times pre-emergence recommended rate relative to untreated control
Lolium rigidum [12] = experiment: Herbicidal activity against Lolium rigidum accession A14 assessed as fresh weight reduction applied at 1 times pre-emergence recommended rate relative to untreated control; set-up: scale not given: the % may be the effect or the level left
Lolium rigidum [13] = experiment: Herbicidal activity against Lolium rigidum accession A04 assessed as emergence rate applied at 1 times pre-emergence recommended rate relative to untreated control
Lolium rigidum [14] = experiment: Herbicidal activity against Lolium rigidum accession A08 assessed as emergence rate applied at 1 times pre-emergence recommended rate relative to untreated control
Lolium rigidum [15] = experiment: Herbicidal activity against Lolium rigidum accession A02 assessed as fresh weight reduction applied at 1 times pre-emergence recommended rate relative to untreated control; set-up: scale not given: the % may be the effect or the level left
Lolium rigidum [16] = experiment: Herbicidal activity against Lolium rigidum accession A01 assessed as emergence rate applied at 1 times pre-emergence recommended rate relative to untreated control
Lolium rigidum [17] = experiment: Herbicidal activity against Lolium rigidum accession A15 assessed as fresh weight reduction applied at 1 times pre-emergence recommended rate relative to untreated control; set-up: scale not given: the % may be the effect or the level left
Lolium rigidum [18] = experiment: Herbicidal activity against Lolium rigidum accession A11 assessed as emergence rate applied at 1 times pre-emergence recommended rate relative to untreated control
Lolium rigidum [19] = experiment: Herbicidal activity against Lolium rigidum accession A10 assessed as fresh weight reduction applied at 1 times pre-emergence recommended rate relative to untreated control; set-up: scale not given: the % may be the effect or the level left
Lolium rigidum [20] = experiment: Herbicidal activity against Lolium rigidum accession A04 assessed as fresh weight reduction applied at 1 times pre-emergence recommended rate relative to untreated control; set-up: scale not given: the % may be the effect or the level left
Lolium rigidum [21] = experiment: Herbicidal activity against Lolium rigidum accession A06 assessed as fresh weight reduction applied at 1 times pre-emergence recommended rate relative to untreated control; set-up: scale not given: the % may be the effect or the level left
Lolium rigidum [22] = experiment: Herbicidal activity against Lolium rigidum accession A09 assessed as fresh weight reduction applied at 1 times pre-emergence recommended rate relative to untreated control; set-up: scale not given: the % may be the effect or the level left
Lolium rigidum [23] = experiment: Herbicidal activity against Lolium rigidum accession A02 assessed as emergence rate applied at 1 times pre-emergence recommended rate relative to untreated control
Lolium rigidum [24] = experiment: Herbicidal activity against Lolium rigidum accession A10 assessed as emergence rate applied at 1 times pre-emergence recommended rate relative to untreated control
Lolium rigidum [25] = experiment: Herbicidal activity against Lolium rigidum accession A13 assessed as fresh weight reduction applied at 1 times pre-emergence recommended rate relative to untreated control; set-up: scale not given: the % may be the effect or the level left
Lolium rigidum [26] = experiment: Herbicidal activity against Lolium rigidum accession A11 assessed as fresh weight reduction applied at 1 times pre-emergence recommended rate relative to untreated control; set-up: scale not given: the % may be the effect or the level left
Lolium rigidum [27] = experiment: Herbicidal activity against Lolium rigidum accession A01 assessed as fresh weight reduction applied at 1 times pre-emergence recommended rate relative to untreated control; set-up: scale not given: the % may be the effect or the level left
Lolium rigidum [28] = experiment: Herbicidal activity against Lolium rigidum accession A03 assessed as emergence rate applied at 1 times pre-emergence recommended rate relative to untreated control
Lolium rigidum [29] = experiment: Herbicidal activity against Lolium rigidum accession A12 assessed as fresh weight reduction applied at 1 times pre-emergence recommended rate relative to untreated control; set-up: scale not given: the % may be the effect or the level left
Lolium rigidum [30] = experiment: Herbicidal activity against Lolium rigidum accession A07 assessed as fresh weight reduction applied at 1 times pre-emergence recommended rate relative to untreated control; set-up: scale not given: the % may be the effect or the level left
Lolium rigidum [31] = experiment: Herbicidal activity against Lolium rigidum accession A11 assessed as fresh weight reduction applied at recommended rate incorporated into the soil prior weed seedlings relative to untreated control; set-up: scale not given: the % may be the effect or the level left
Lolium rigidum [32] = experiment: Herbicidal activity against Lolium rigidum accession A13 assessed as emergence rate applied at recommended rate incorporated into the soil prior weed seedlings relative to untreated control
Lolium rigidum [33] = experiment: Herbicidal activity against Lolium rigidum accession A14 assessed as emergence rate applied at recommended rate incorporated into the soil prior weed seedlings relative to untreated control
Lolium rigidum [34] = experiment: Herbicidal activity against Lolium rigidum accession A01 assessed as fresh weight reduction applied at recommended rate incorporated into the soil prior weed seedlings relative to untreated control; set-up: scale not given: the % may be the effect or the level left
Lolium rigidum [35] = experiment: Herbicidal activity against Lolium rigidum accession A05 assessed as fresh weight reduction applied at recommended rate incorporated into the soil prior weed seedlings relative to untreated control; set-up: scale not given: the % may be the effect or the level left
Lolium rigidum [36] = experiment: Herbicidal activity against Lolium rigidum accession A15 assessed as emergence rate applied at recommended rate incorporated into the soil prior weed seedlings relative to untreated control
Lolium rigidum [37] = experiment: Herbicidal activity against Lolium rigidum accession A11 assessed as emergence rate applied at recommended rate incorporated into the soil prior weed seedlings relative to untreated control
Lolium rigidum [38] = experiment: Herbicidal activity against Lolium rigidum accession A08 assessed as emergence rate applied at recommended rate incorporated into the soil prior weed seedlings relative to untreated control
Lolium rigidum [39] = experiment: Herbicidal activity against Lolium rigidum accession A07 assessed as emergence rate applied at recommended rate incorporated into the soil prior weed seedlings relative to untreated control
Lolium rigidum [40] = experiment: Herbicidal activity against Lolium rigidum accession A03 assessed as emergence rate applied at recommended rate incorporated into the soil prior weed seedlings relative to untreated control
Lolium rigidum [41] = experiment: Herbicidal activity against Lolium rigidum accession A07 assessed as fresh weight reduction applied at recommended rate incorporated into the soil prior weed seedlings relative to untreated control; set-up: scale not given: the % may be the effect or the level left
Lolium rigidum [42] = experiment: Herbicidal activity against Lolium rigidum accession A04 assessed as fresh weight reduction applied at recommended rate incorporated into the soil prior weed seedlings relative to untreated control; set-up: scale not given: the % may be the effect or the level left
Lolium rigidum [43] = experiment: Herbicidal activity against Lolium rigidum accession A10 assessed as fresh weight reduction applied at recommended rate incorporated into the soil prior weed seedlings relative to untreated control; set-up: scale not given: the % may be the effect or the level left
Lolium rigidum [44] = experiment: Herbicidal activity against Lolium rigidum accession A06 assessed as fresh weight reduction applied at recommended rate incorporated into the soil prior weed seedlings relative to untreated control; set-up: scale not given: the % may be the effect or the level left
Lolium rigidum [45] = experiment: Herbicidal activity against Lolium rigidum accession A14 assessed as fresh weight reduction applied at recommended rate incorporated into the soil prior weed seedlings relative to untreated control; set-up: scale not given: the % may be the effect or the level left
Lolium rigidum [46] = experiment: Herbicidal activity against Lolium rigidum accession A12 assessed as fresh weight reduction applied at recommended rate incorporated into the soil prior weed seedlings relative to untreated control; set-up: scale not given: the % may be the effect or the level left
Lolium rigidum [47] = experiment: Herbicidal activity against Lolium rigidum accession A15 assessed as fresh weight reduction applied at recommended rate incorporated into the soil prior weed seedlings relative to untreated control; set-up: scale not given: the % may be the effect or the level left
Lolium rigidum [48] = experiment: Herbicidal activity against Lolium rigidum accession A06 assessed as emergence rate applied at recommended rate incorporated into the soil prior weed seedlings relative to untreated control
Lolium rigidum [49] = experiment: Herbicidal activity against Lolium rigidum accession A09 assessed as fresh weight reduction applied at recommended rate incorporated into the soil prior weed seedlings relative to untreated control; set-up: scale not given: the % may be the effect or the level left
Lolium rigidum [50] = experiment: Herbicidal activity against Lolium rigidum accession A04 assessed as emergence rate applied at recommended rate incorporated into the soil prior weed seedlings relative to untreated control
Lolium rigidum [51] = experiment: Herbicidal activity against Lolium rigidum accession A12 assessed as emergence rate applied at recommended rate incorporated into the soil prior weed seedlings relative to untreated control
Lolium rigidum [52] = experiment: Herbicidal activity against Lolium rigidum accession A05 assessed as emergence rate applied at recommended rate incorporated into the soil prior weed seedlings relative to untreated control
Lolium rigidum [53] = experiment: Herbicidal activity against Lolium rigidum accession A08 assessed as fresh weight reduction applied at recommended rate incorporated into the soil prior weed seedlings relative to untreated control; set-up: scale not given: the % may be the effect or the level left
Lolium rigidum [54] = experiment: Herbicidal activity against Lolium rigidum accession A13 assessed as fresh weight reduction applied at recommended rate incorporated into the soil prior weed seedlings relative to untreated control; set-up: scale not given: the % may be the effect or the level left
Lolium rigidum [55] = experiment: Herbicidal activity against Lolium rigidum accession A02 assessed as emergence rate applied at recommended rate incorporated into the soil prior weed seedlings relative to untreated control
Lolium rigidum [56] = experiment: Herbicidal activity against Lolium rigidum accession A10 assessed as emergence rate applied at recommended rate incorporated into the soil prior weed seedlings relative to untreated control
Lolium rigidum [57] = experiment: Herbicidal activity against Lolium rigidum accession A03 assessed as fresh weight reduction applied at recommended rate incorporated into the soil prior weed seedlings relative to untreated control; set-up: scale not given: the % may be the effect or the level left
Lolium rigidum [58] = experiment: Herbicidal activity against Lolium rigidum accession A01 assessed as emergence rate applied at recommended rate incorporated into the soil prior weed seedlings relative to untreated control
Lolium rigidum [59] = experiment: Herbicidal activity against Lolium rigidum accession A09 assessed as emergence rate applied at recommended rate incorporated into the soil prior weed seedlings relative to untreated control
Lolium rigidum [60] = experiment: Herbicidal activity against Lolium rigidum accession A02 assessed as fresh weight reduction applied at recommended rate incorporated into the soil prior weed seedlings relative to untreated control; set-up: scale not given: the % may be the effect or the level left

Measured: Activity

CCCN(CCC)C(=O)SCc1ccccc1 [PROSULFOCARB]
0%: Lolium rigidum [2] | Lolium rigidum [4] | Lolium rigidum [5] | Lolium rigidum [7] | Lolium rigidum [8] | Lolium rigidum [9] | Lolium rigidum [10] | Lolium rigidum [11] | Lolium rigidum [14] | Lolium rigidum [16] | Lolium rigidum [23] | Lolium rigidum [24] | Lolium rigidum [28]
1%: Lolium rigidum [13] | Lolium rigidum [18]
100%: Lolium rigidum [1] | Lolium rigidum [3] | Lolium rigidum [6] | Lolium rigidum [12] | Lolium rigidum [15] | Lolium rigidum [17] | Lolium rigidum [19] | Lolium rigidum [21] | Lolium rigidum [22] | Lolium rigidum [25] | Lolium rigidum [27] | Lolium rigidum [29] | Lolium rigidum [30]
99%: Lolium rigidum [26]
98%: Lolium rigidum [20]

CCOP(=S)(OCC)SCSC(C)(C)C [TERBUFOS]
98%: Lolium rigidum [37] | Lolium rigidum [40]
1%: Lolium rigidum [35] | Lolium rigidum [45]
0%: Lolium rigidum [31] | Lolium rigidum [34] | Lolium rigidum [41] | Lolium rigidum [42] | Lolium rigidum [43] | Lolium rigidum [44] | Lolium rigidum [47] | Lolium rigidum [49] | Lolium rigidum [53] | Lolium rigidum [54] | Lolium rigidum [57] | Lolium rigidum [60]
99%: Lolium rigidum [36] | Lolium rigidum [58] | Lolium rigidum [59]
95%: Lolium rigidum [52] | Lolium rigidum [56]
100%: Lolium rigidum [32] | Lolium rigidum [38] | Lolium rigidum [50]
97%: Lolium rigidum [48] | Lolium rigidum [55]
2%: Lolium rigidum [46]
93%: Lolium rigidum [39] | Lolium rigidum [51]
94%: Lolium rigidum [33]
